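Five concentrations, 48 hours, 96-well plates. Abbreviation: GI50, concentration required for 50% inhibition of growth.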 Active and inactive are the calls of the source. Rule as the data show it: active = GI50 up to about 1.1 µM and inactive = higher.
How the values were obtained:
Assay in all cases: growth of human tumour cells (NCI), 48 h
BT-549 = system: BT-549
Hs-578T = system: Hs-578T
SK-MEL-5 = system: SK-MEL-5
MOLT-4 = system: MOLT-4
UO-31 = system: UO-31
HCT-116 = system: HCT-116
A549 = system: A549
MDA-N = system: MDA-N
SK-MEL-28 = system: SK-MEL-28
MCF7 = system: MCF7
HCT-15 = system: HCT-15
SF-295 = system: SF-295
SNB-19 = system: SNB-19
KM12 = system: KM12
K562 = system: K562
SW-620 = system: SW-620
IGROV-1 = system: IGROV-1
OVCAR-4 = system: OVCAR-4
NCI-H226 = system: NCI-H226

Row | Compound | GI50 (BT-549) | GI50 (Hs-578T) | GI50 (SK-MEL-5) | GI50 (MOLT-4) | GI50 (UO-31) | GI50 (HCT-116) | GI50 (A549) | GI50 (MDA-N) | GI50 (SK-MEL-28) | GI50 (MCF7) | GI50 (HCT-15) | GI50 (SF-295) | GI50 (SNB-19) | GI50 (KM12) | GI50 (K562) | GI50 (SW-620) | GI50 (IGROV-1) | GI50 (OVCAR-4) | GI50 (NCI-H226)
1 | COc1nc(C#CC(C)(C)C)nc(OC)n1 | 31.9 µM (inactive) | 30.8 µM (inactive) | 16 µM (inactive) | 35.6 µM (inactive) | 28.7 µM (inactive) | 15.7 µM (inactive) | 25.4 µM (inactive) | 12.4 µM (inactive) | 37.2 µM (inactive) | 19 µM (inactive) | 20.8 µM | 32.4 µM (inactive) | > 100 µM (inactive) | 18.2 µM (inactive) | 38 µM (inactive) | 25 µM (inactive) | 39.4 µM (inactive) | 16.4 µM (inactive) | –
2 | Cc1cn2c(/C=C3/C(=O)Nc4ccccc43)c(C)nc2s1 | 3.95 µM (inactive) | 1.99 µM (inactive) | 0.516 µM (active) | 0.581 µM (active) | 5.6 µM (inactive) | 0.867 µM (active) | 2.02 µM (inactive) | 0.165 µM (active) | 5.96 µM (inactive) | 0.547 µM (active) | 0.679 µM | 0.652 µM (active) | 3.32 µM (inactive) | 0.261 µM (active) | 0.431 µM (active) | 0.504 µM (active) | 0.634 µM (active) | – | –
3 | CNC(=O)CCCNC(=O)CCCC(=O)OC | > 100 µM (inactive) | > 100 µM (inactive) | > 100 µM (inactive) | > 100 µM (inactive) | > 100 µM (inactive) | > 100 µM (inactive) | > 100 µM (inactive) | > 100 µM (inactive) | > 100 µM (inactive) | > 100 µM (inactive) | > 100 µM | > 100 µM (inactive) | > 100 µM (inactive) | > 100 µM (inactive) | > 100 µM (inactive) | > 100 µM (inactive) | > 100 µM (inactive) | – | > 100 µM (inactive)
4 | Cc1cc(N(CCC#N)CCC#N)ccc1C(/N=N/c1ccc([N+](=O)[O-])cc1)=N\NC(=O)c1ccccc1 | 37.5 µM (inactive) | 25.1 µM (inactive) | 26.4 µM (inactive) | 45.2 µM (inactive) | 34.4 µM (inactive) | 31.8 µM (inactive) | 57.1 µM (inactive) | 6.25 µM (inactive) | – | 25.8 µM (inactive) | 30.1 µM | 19.5 µM (inactive) | 40.6 µM (inactive) | 40.8 µM (inactive) | 22.9 µM (inactive) | – | 47 µM (inactive) | 61 µM (inactive) | 39.1 µM (inactive)
5 | COc1ccc2c(c1)/C(=C\c1c(-c3ccccc3)nc3n1CCS3)C(=O)N2 | 9.51 µM (inactive) | 11 µM (inactive) | 5.08 µM (inactive) | 2.78 µM (inactive) | 9.82 µM (inactive) | 5.01 µM (inactive) | 5.57 µM (inactive) | 1.87 µM (inactive) | 11.1 µM (inactive) | 4.62 µM (inactive) | 4.38 µM | 3.79 µM (inactive) | 49.7 µM (inactive) | 3.33 µM (inactive) | 2.94 µM (inactive) | 2.99 µM (inactive) | 4.92 µM (inactive) | – | –
6 | C[n+]1c(/C=C/c2ccc(/C=N/NC(=O)c3ccc(C(=O)N/N=C/c4ccc(/C=C/c5cn6ccccc6[n+]5C)cc4)cc3)cc2)cn2ccccc21 | > 100 µM (inactive) | > 100 µM (inactive) | 1.89 µM (inactive) | 30.9 µM (inactive) | > 100 µM (inactive) | > 100 µM (inactive) | > 100 µM (inactive) | > 100 µM (inactive) | > 100 µM (inactive) | > 100 µM (inactive) | > 100 µM | > 100 µM (inactive) | > 100 µM (inactive) | > 100 µM (inactive) | – | > 100 µM (inactive) | > 100 µM (inactive) | – | –

— ChEMBL document CHEMBL1201862, “PubChem BioAssay data set” (2004)
